Data from ChEMBL document CHEMBL1201861, “Genomics of Drug Sensitity in Cancer screening data, Wellcome Trust Sanger Institute”.

What was measured:
Test in all cases: cells
DSH1 = format: functional, cell-based; details: Homo sapiens
Description: SANGER: Inhibition of human DSH1 cell growth in a cell viability assay.

ES1 = format: functional, cell-based, Homo sapiens; details: Homo sapiens, ES1
Description: SANGER: Inhibition of human ES1 cell growth in a cell viability assay.

ES3 = format: functional, cell-based, Homo sapiens; details: Homo sapiens, ES3
Description: SANGER: Inhibition of human ES3 cell growth in a cell viability assay.

EW-18 = format: functional, cell-based, Homo sapiens; details: Homo sapiens, EW-18; read-out: IC50
Description: SANGER: Inhibition of human EW-18 cell growth in a cell viability assay.

GI-1 = format: functional, cell-based, Homo sapiens; details: Homo sapiens, GI-1
Description: SANGER: Inhibition of human GI-1 cell growth in a cell viability assay.

HAL-01 = format: functional, cell-based, Homo sapiens; details: Homo sapiens, HAL-01
Description: SANGER: Inhibition of human HAL-01 cell growth in a cell viability assay.

HD-MY-Z = format: functional, cell-based, Homo sapiens; details: Homo sapiens, HD-MY-Z
Description: SANGER: Inhibition of human HD-MY-Z cell growth in a cell viability assay.

IA-LM = format: functional, cell-based; details: Homo sapiens
Description: SANGER: Inhibition of human IA-LM cell growth in a cell viability assay.

IST-MES1 = format: functional, cell-based, Homo sapiens; details: Homo sapiens, IST-MES1
Description: SANGER: Inhibition of human IST-MES1 cell growth in a cell viability assay.

JAR = format: functional, cell-based, Homo sapiens; details: Homo sapiens, JAR
Description: SANGER: Inhibition of human JAR cell growth in a cell viability assay.

KE-37 = format: functional, cell-based, Homo sapiens; details: Homo sapiens, KE-37
Description: SANGER: Inhibition of human KE-37 cell growth in a cell viability assay.

KG-1 = format: functional, cell-based, Homo sapiens; details: Homo sapiens, KG-1
Description: SANGER: Inhibition of human KG-1 cell growth in a cell viability assay.

KLE = format: functional, cell-based; details: Homo sapiens
Description: SANGER: Inhibition of human KLE cell growth in a cell viability assay.

KM12 = format: functional, cell-based, Homo sapiens; details: Homo sapiens, KM12
Description: SANGER: Inhibition of human KM12 cell growth in a cell viability assay.

L-363 = format: functional, cell-based, Homo sapiens; details: Homo sapiens, L-363
Description: SANGER: Inhibition of human L-363 cell growth in a cell viability assay.

LAMA-84 = format: functional, cell-based, Homo sapiens; details: Homo sapiens, LAMA-84
Description: SANGER: Inhibition of human LAMA-84 cell growth in a cell viability assay.

LOX IMVI = format: functional, cell-based, Homo sapiens; details: Homo sapiens, LOX IMVI
Description: SANGER: Inhibition of human LOXIMVI cell growth in a cell viability assay.

LS-513 = format: functional, cell-based, Homo sapiens; details: Homo sapiens, LS-513
Description: SANGER: Inhibition of human LS-513 cell growth in a cell viability assay.

Lu-65 = format: functional, cell-based, Homo sapiens; details: Homo sapiens, Lu-65
Description: SANGER: Inhibition of human LU-65 cell growth in a cell viability assay.

MFM-223 = format: functional, cell-based, Homo sapiens; details: Homo sapiens, MFM-223
Description: SANGER: Inhibition of human MFM-223 cell growth in a cell viability assay.

MLMA = format: functional, cell-based, Homo sapiens; details: Homo sapiens, MLMA
Description: SANGER: Inhibition of human MLMA cell growth in a cell viability assay.

MOLT-4 = format: functional, cell-based, Homo sapiens; details: Homo sapiens, MOLT-4
Description: SANGER: Inhibition of human MOLT-4 cell growth in a cell viability assay.

MPP-89 = format: functional, cell-based, Homo sapiens; details: Homo sapiens, MPP-89
Description: SANGER: Inhibition of human MPP-89 cell growth in a cell viability assay.

MZ7-mel = format: functional, cell-based, Homo sapiens; details: Homo sapiens, MZ7-mel
Description: SANGER: Inhibition of human MZ7-mel cell growth in a cell viability assay.

NB13 = format: functional, cell-based, Homo sapiens; details: Homo sapiens, NB13
Description: SANGER: Inhibition of human NB13 cell growth in a cell viability assay.

NCI-H1838 = format: functional, cell-based, Homo sapiens; details: Homo sapiens, NCI-H1838
Description: SANGER: Inhibition of human NCI-H1838 cell growth in a cell viability assay.

NCI-H226 = format: functional, cell-based, Homo sapiens; details: Homo sapiens, NCI-H226
Description: SANGER: Inhibition of human NCI-H226 cell growth in a cell viability assay.

NCI-H23 = format: functional, cell-based, Homo sapiens; details: Homo sapiens, NCI-H23
Description: SANGER: Inhibition of human NCI-H23 cell growth in a cell viability assay.

NH-12 = format: functional, cell-based, Homo sapiens; details: Homo sapiens, NH-12
Description: SANGER: Inhibition of human NH-12 cell growth in a cell viability assay.

QIMR-WIL = format: functional, cell-based, Homo sapiens; details: Homo sapiens, QIMR-WIL
Description: SANGER: Inhibition of human QIMR-WIL cell growth in a cell viability assay.

RH-1 = format: functional, cell-based, Homo sapiens; details: Homo sapiens, RH-1
Description: SANGER: Inhibition of human RH-1 cell growth in a cell viability assay.

SF-126 = format: functional, cell-based, Homo sapiens; details: Homo sapiens, SF-126
Description: SANGER: Inhibition of human SF126 cell growth in a cell viability assay.

SHP77 = format: functional, cell-based, Homo sapiens, SHP-77; details: Homo sapiens, SHP77
Description: SANGER: Inhibition of human SHP-77 cell growth in a cell viability assay.

SJSA-1 = format: functional, cell-based, Homo sapiens; details: Homo sapiens, SJSA-1
Description: SANGER: Inhibition of human SJSA-1 cell growth in a cell viability assay.

SK-LMS-1 = format: functional, cell-based, Homo sapiens; details: Homo sapiens, SK-LMS-1
Description: SANGER: Inhibition of human SK-LMS-1 cell growth in a cell viability assay.

SK-N-DZ = format: functional, cell-based, Homo sapiens; details: Homo sapiens, SK-N-DZ; read-out: IC50
Description: SANGER: Inhibition of human SK-N-DZ cell growth in a cell viability assay.

SK-PN-DW = format: functional, cell-based, Homo sapiens; details: Homo sapiens, SK-PN-DW
Description: SANGER: Inhibition of human SK-PN-DW cell growth in a cell viability assay.

SW684 = format: functional, cell-based, Homo sapiens; details: Homo sapiens, SW684; read-out: IC50
Description: SANGER: Inhibition of human SW684 cell growth in a cell viability assay.

SW 962 = format: functional, cell-based, Homo sapiens; details: Homo sapiens, SW 962
Description: SANGER: Inhibition of human SW962 cell growth in a cell viability assay.

TE-1 = format: functional, cell-based, Homo sapiens; details: Homo sapiens, TE-1
Description: SANGER: Inhibition of human TE-1 cell growth in a cell viability assay.

A101D = format: functional, cell-based, Homo sapiens; details: Homo sapiens, A101D
Description: SANGER: Inhibition of human A101D cell growth in a cell viability assay.

ACN = format: functional, cell-based, Homo sapiens; details: Homo sapiens, ACN
Description: SANGER: Inhibition of human ACN cell growth in a cell viability assay.

AM-38 = format: functional, cell-based, Homo sapiens; details: Homo sapiens, AM-38
Description: SANGER: Inhibition of human AM-38 cell growth in a cell viability assay.

BE-13 = format: functional, cell-based, Homo sapiens; details: Homo sapiens, BE-13
Description: SANGER: Inhibition of human BE-13 cell growth in a cell viability assay.

BV-173 = format: functional, cell-based, Homo sapiens; details: Homo sapiens, BV-173
Description: SANGER: Inhibition of human BV-173 cell growth in a cell viability assay.

C2BBe1 = format: functional, cell-based, Homo sapiens; details: Homo sapiens, C2BBe1
Description: SANGER: Inhibition of human C2BBe1 cell growth in a cell viability assay.

TE-5 = format: functional, cell-based, Homo sapiens; details: Homo sapiens, TE-5
Description: SANGER: Inhibition of human TE-5 cell growth in a cell viability assay.

CCRF-CEM = format: functional, cell-based, Homo sapiens; details: Homo sapiens, CCRF-CEM
Description: SANGER: Inhibition of human CCRF-CEM cell growth in a cell viability assay.

EOL1 = format: functional, cell-based, Homo sapiens; details: Homo sapiens, EOL1
Description: SANGER: Inhibition of human EoL-1-cell cell growth in a cell viability assay.

A253 cell line = format: functional, cell-based, Homo sapiens; details: Homo sapiens, A253
Description: SANGER: Inhibition of human A253 cell growth in a cell viability assay.

## CC1=C(/C=C/C(C)=C/C=C/C(C)=C/C(=O)O)C(C)(C)CCC1 [TRETINOIN]
DSH1
  IC50: > 10 µM
ES1
  IC50: > 10 µM
ES3
  IC50: > 10 µM
EW-18
  IC50: > 10 µM
GI-1
  IC50: > 10 µM
HAL-01
  IC50: > 10 µM
HD-MY-Z
  IC50: > 10 µM
IA-LM
  IC50: > 10 µM
IST-MES1
  IC50: > 10 µM
JAR
  IC50: > 10 µM
KE-37
  IC50: > 10 µM
KG-1
  IC50: > 10 µM
KLE
  IC50: > 10 µM
KM12
  IC50: > 10 µM
L-363
  IC50: 2.07 µM
LAMA-84
  IC50: 0.996 µM
LOX IMVI
  IC50: > 10 µM
LS-513
  IC50: > 10 µM
Lu-65
  IC50: > 10 µM
MFM-223
  IC50: > 10 µM
MLMA
  IC50: > 10 µM
MOLT-4
  IC50: > 10 µM
MPP-89
  IC50: > 10 µM
MZ7-mel
  IC50: > 10 µM
NB13
  IC50: 0.257 µM
NCI-H1838
  IC50: > 10 µM
NCI-H226
  IC50: > 10 µM
NCI-H23
  IC50: > 10 µM
NH-12
  IC50: > 10 µM
QIMR-WIL
  IC50: 6.62 µM
RH-1
  IC50: > 10 µM
SF-126
  IC50: > 10 µM
SHP77
  IC50: > 10 µM
SJSA-1
  IC50: > 10 µM
SK-LMS-1
  IC50: > 10 µM
SK-N-DZ
  IC50: > 10 µM
SK-PN-DW
  IC50: > 10 µM
SW684
  IC50: > 10 µM
SW 962
  IC50: > 10 µM
TE-1
  IC50: > 10 µM
A101D
  IC50: > 10 µM
ACN
  IC50: 1.65 µM
AM-38
  IC50: > 10 µM
BE-13
  IC50: > 10 µM
BV-173
  IC50: 1.6 µM
C2BBe1
  IC50: > 10 µM
TE-5
  IC50: > 10 µM
CCRF-CEM
  IC50: > 10 µM

## CO[C@@H]1[C@H](N(C)C(=O)c2ccccc2)C[C@H]2O[C@]1(C)n1c3ccccc3c3c4c(c5c6ccccc6n2c5c31)C(=O)NC4 [MIDOSTAURIN]
EW-18
  IC50: 0.322 µM
GI-1
  IC50: 0.319 µM
KM12
  IC50: 0.0928 µM
Lu-65
  IC50: > 0.512 µM
SK-LMS-1
  IC50: 0.353 µM
SW 962
  IC50: > 0.512 µM
BE-13
  IC50: > 0.512 µM

## NC(=O)Nc1cc(-c2cccc(F)c2)sc1C(=O)N[C@H]1CCCNC1 [AZD-7762]
DSH1
  IC50: 1.69 µM
ES1
  IC50: 0.0715 µM
ES3
  IC50: 0.102 µM
EW-18
  IC50: 1.6 µM
EOL1
  IC50: < 0.00781 µM
GI-1
  IC50: 0.196 µM
HAL-01
  IC50: 0.21 µM
HD-MY-Z
  IC50: 0.0625 µM
IA-LM
  IC50: 1.4 µM
IST-MES1
  IC50: > 2 µM
JAR
  IC50: 0.232 µM
KE-37
  IC50: 0.0314 µM
KG-1
  IC50: 0.845 µM
KLE
  IC50: > 2 µM
KM12
  IC50: 0.0516 µM
L-363
  IC50: 0.0739 µM
LAMA-84
  IC50: 0.165 µM
LOX IMVI
  IC50: 0.429 µM
LS-513
  IC50: 0.749 µM
Lu-65
  IC50: > 2 µM
MFM-223
  IC50: 1.24 µM
MLMA
  IC50: 0.0285 µM
MOLT-4
  IC50: 0.239 µM
MPP-89
  IC50: 0.245 µM
MZ7-mel
  IC50: 0.347 µM
NB13
  IC50: 0.537 µM
NCI-H1838
  IC50: > 2 µM
NCI-H226
  IC50: > 2 µM
NCI-H23
  IC50: 0.248 µM
NH-12
  IC50: 0.357 µM
QIMR-WIL
  IC50: 0.163 µM
RH-1
  IC50: 0.227 µM
SF-126
  IC50: 0.574 µM
SHP77
  IC50: > 2 µM
SJSA-1
  IC50: 0.417 µM
SK-LMS-1
  IC50: > 2 µM
SK-N-DZ
  IC50: 0.531 µM
SK-PN-DW
  IC50: 0.119 µM
SW684
  IC50: > 2 µM
SW 962
  IC50: > 2 µM
TE-1
  IC50: 1.21 µM
A101D
  IC50: 1.7 µM
ACN
  IC50: 0.172 µM
AM-38
  IC50: > 2 µM
BE-13
  IC50: 0.201 µM
BV-173
  IC50: 0.346 µM
C2BBe1
  IC50: 0.689 µM
TE-5
  IC50: 1.42 µM
CCRF-CEM
  IC50: 0.292 µM

## NC(=O)c1ccc(N(C(N)=O)c2c(F)cccc2F)nc1-c1ccc(F)cc1F [VX-702]
DSH1
  IC50: > 2 µM
ES1
  IC50: > 2 µM
ES3
  IC50: > 2 µM
EW-18
  IC50: 0.747 µM
GI-1
  IC50: > 2 µM
HAL-01
  IC50: > 2 µM
HD-MY-Z
  IC50: > 2 µM
IA-LM
  IC50: > 2 µM
IST-MES1
  IC50: > 2 µM
JAR
  IC50: > 2 µM
KE-37
  IC50: > 2 µM
KG-1
  IC50: > 2 µM
KLE
  IC50: > 2 µM
KM12
  IC50: > 2 µM
L-363
  IC50: > 2 µM
LAMA-84
  IC50: > 2 µM
LOX IMVI
  IC50: > 2 µM
LS-513
  IC50: > 2 µM
Lu-65
  IC50: > 2 µM
MFM-223
  IC50: > 2 µM
MLMA
  IC50: > 2 µM
MOLT-4
  IC50: > 2 µM
MPP-89
  IC50: > 2 µM
MZ7-mel
  IC50: > 2 µM
NB13
  IC50: > 2 µM
NCI-H1838
  IC50: > 2 µM
NCI-H226
  IC50: > 2 µM
NCI-H23
  IC50: > 2 µM
NH-12
  IC50: > 2 µM
QIMR-WIL
  IC50: > 2 µM
RH-1
  IC50: > 2 µM
SF-126
  IC50: > 2 µM
SHP77
  IC50: > 2 µM
SJSA-1
  IC50: > 2 µM
SK-LMS-1
  IC50: > 2 µM
SK-N-DZ
  IC50: > 2 µM
SK-PN-DW
  IC50: > 2 µM
SW684
  IC50: > 2 µM
SW 962
  IC50: > 2 µM
TE-1
  IC50: > 2 µM
A101D
  IC50: > 2 µM
ACN
  IC50: > 2 µM
AM-38
  IC50: > 2 µM
BE-13
  IC50: > 2 µM
BV-173
  IC50: 0.114 µM
C2BBe1
  IC50: > 2 µM
TE-5
  IC50: > 2 µM
CCRF-CEM
  IC50: > 2 µM

## CC1(C)CCC(c2ccc(Cl)cc2)=C(CN2CCN(c3ccc(C(=O)NS(=O)(=O)c4ccc(N[C@H](CCN5CCOCC5)CSc5ccccc5)c(S(=O)(=O)C(F)(F)F)c4)cc3)CC2)C1 [NAVITOCLAX]
DSH1
  IC50: > 2 µM
ES1
  IC50: > 2 µM
ES3
  IC50: > 2 µM
EW-18
  IC50: 0.0684 µM
EOL1
  IC50: 0.00669 µM
GI-1
  IC50: > 2 µM
HAL-01
  IC50: 0.725 µM
HD-MY-Z
  IC50: > 2 µM
IA-LM
  IC50: > 2 µM
IST-MES1
  IC50: > 2 µM
JAR
  IC50: > 2 µM
KE-37
  IC50: 0.114 µM
KG-1
  IC50: 0.0449 µM
KLE
  IC50: > 2 µM
KM12
  IC50: > 2 µM
L-363
  IC50: > 2 µM
LAMA-84
  IC50: 0.592 µM
LOX IMVI
  IC50: > 2 µM
LS-513
  IC50: > 2 µM
Lu-65
  IC50: > 2 µM
MFM-223
  IC50: > 2 µM
MLMA
  IC50: 1.97 µM
MOLT-4
  IC50: 0.152 µM
MPP-89
  IC50: > 2 µM
MZ7-mel
  IC50: > 2 µM
NB13
  IC50: 0.082 µM
NCI-H1838
  IC50: > 2 µM
NCI-H226
  IC50: > 2 µM
NCI-H23
  IC50: > 2 µM
NH-12
  IC50: 0.107 µM
QIMR-WIL
  IC50: 0.0429 µM
RH-1
  IC50: > 2 µM
SF-126
  IC50: > 2 µM
SHP77
  IC50: > 2 µM
SJSA-1
  IC50: > 2 µM
SK-N-DZ
  IC50: > 2 µM
SK-PN-DW
  IC50: > 2 µM
SW684
  IC50: > 2 µM
SW 962
  IC50: > 2 µM
TE-1
  IC50: > 2 µM
A101D
  IC50: > 2 µM
A253 cell line
  IC50: > 2 µM
ACN
  IC50: > 2 µM
AM-38
  IC50: > 2 µM
BE-13
  IC50: 0.365 µM
BV-173
  IC50: 0.0231 µM
C2BBe1
  IC50: > 2 µM
TE-5
  IC50: > 2 µM
CCRF-CEM
  IC50: 0.335 µM
